Data set [1] concerns aureolysin. Description: bacterial protease aureolysin. As to conditions: up to 6 h.
Data set [2] deals with MDR K. pneumoniae (CCUG 58547). The class given is cell-based, Klebsiella pneumoniae. As to conditions: 10 mM Tris buffer, bacteria 1 × 10^6 CFU/mL, 1 h 37 °C, then TSB 16–18 h, read at 595 nm. As for the experimental part: The following uropathogenic bacterial species were used for the in vitro experiments, E. coli CFT073; E. coli ESBL-producing (CCUG 55197); K. pneumoniae (ATCC 25955); K. pneumoniae multidrug resistant (MDR) (CCUG 58547); and P. aeruginosa (ATCC 27853). Clinical isolates were obtained from the Department of Clinical Microbiology, Karolinska University Hospital, Solna, Sweden. Bacteria were cultured aerobically overnight on blood agar plates at 37 °C. For each bacterial species, 20 clinical isolates were included. For further assessment of biofilm formation, the E. coli isolate #12 from a child with pyelonephritis was chosen. The isolate expresses both curli and cellulose, as well as type 1 fimbriae and produces biofilm as measured on microtiter plates One-step knockout of bcsA and csgBA were carried out using the methods as described previously. […]
MIC of CD4-PP was evaluated against the type strains and the 20 clinical bacterial isolates using a two-step micro-dilution assay adapted for testing AMPs. […]
Bacteria were grown to mid-log phase before diluting to a final concentration of 1 × 10^6 CFU/mL in 10 mM Tris buffer using a Densichek Plus (BioMérieux). […] The MIC was read spectrophotometrically at 595 nm. […] The effects of salt ions on the antibacterial activities of CD4-PP were assessed against E. coli (ATCC 25922) and P. aeruginosa (ATCC 27853) type strains. […]

Data set [3] relates to Klebsiella pneumoniae (ATCC 25955). The class given is cell-based. To be noted: 10 mM Tris buffer, bacteria 1 × 10^6 CFU/mL, 1 h 37 °C, then TSB 16–18 h, read at 595 nm. As for the experimental part: (§1) The following uropathogenic bacterial species were used for the in vitro experiments, E. coli CFT073; E. coli ESBL-producing (CCUG 55197); K. pneumoniae (ATCC 25955); K. pneumoniae multidrug resistant (MDR) (CCUG 58547); and P. aeruginosa (ATCC 27853). Clinical isolates were obtained from the Department of Clinical Microbiology, Karolinska University Hospital, Solna, Sweden. Bacteria were cultured aerobically overnight on blood agar plates at 37 °C. For each bacterial species, 20 clinical isolates were included. For further assessment of biofilm formation, the E. coli isolate #12 from a child with pyelonephritis was chosen. The isolate expresses both curli and cellulose, as well as type 1 fimbriae and produces biofilm as measured on microtiter plates One-step knockout of bcsA and csgBA were carried out using the methods as described previously. The following mutants were used: WE1 bcsA::Cm (deficient in cellulose production), WE11 csgBA::Cm (deficient in curli production), and WE16 csgBA bscA::Cm (deficient in both cellulose and curli production). E. coli CFT073 was used for all experiments where nothing else is stated.
(§2) MIC of CD4-PP was evaluated against the type strains and the 20 clinical bacterial isolates using a two-step micro-dilution assay adapted for testing AMPs. The concentrations of CD4-PP were prepared double strength with two-fold serial dilutions ranging from 50 to 0.78 µM in 50 µL of 10 mM Tris buffer in a U-bottom 96-well plate (Corning Incorporated).
(§3) Bacteria were grown to mid-log phase before diluting to a final concentration of 1 × 10^6 CFU/mL in 10 mM Tris buffer using a Densichek Plus (BioMérieux). To each well, 50 µL suspension was added and incubated at 37 °C for 1 h and the final concentrations of peptide tested were from 25 to 0.39 µM. […] The MIC was read spectrophotometrically at 595 nm. MIC was defined as the lowest concentration of CD4-PP which inhibits bacterial growth. The effects of salt ions on the antibacterial activities of CD4-PP were assessed against E. coli (ATCC 25922) and P. aeruginosa (ATCC 27853) type strains. The following salts were used: sodium chloride (NaCl), ammonium chloride (NH4Cl), calcium chloride (CaCl2), magnesium chloride (MgCl2) and ferric chloride (FeCl3). All salts were purchased from Merck.

Data set [4] addresses aureolysin (Staphylococcus aureus, UniProt P81177). Description: Proteolytic stability against aureolysin. The class given is in vitro ADME. To be noted: bacterial protease aureolysin; percentage of intact peptide at time points by LC–MS. As for the experimental part:
A major limitation of AMPs as potential drug candidates is due to their inherent proteolytic instability, and endogenous AMPs are readily degraded by both host- and pathogen-proteases. […] Therefore, the stability of CD4-PP was tested against this enzyme. The percentage of the intact peptide at different time points was monitored using LC–MS, and compared to LL-37 as a control. […] In contrast, CD4-PP is stable for up to 6 h (Supplementary Fig. S2).
[picture] Supplementary Figure S2.

Data set [5] deals with E. coli ESBL strain (CCUG 55971). The data set is classed as cell-based, Escherichia coli. As to conditions: 10 mM Tris buffer, bacteria 1 × 10^6 CFU/mL, 1 h 37 °C, then TSB 16–18 h, read at 595 nm. The protocol: as §1, §2
(§4) Bacteria were grown to mid-log phase before diluting to a final concentration of 1 × 10^6 CFU/mL in 10 mM Tris buffer using a Densichek Plus (BioMérieux). To each well, 50 µL suspension was added and incubated at 37 °C for 1 h and the final concentrations of peptide tested were from 25 to 0.39 µM. […] The MIC was read spectrophotometrically at 595 nm. MIC was defined as the lowest concentration of CD4-PP which inhibits bacterial growth. The effects of salt ions on the antibacterial activities of CD4-PP were assessed against E. coli (ATCC 25922) and P. aeruginosa (ATCC 27853) type strains. […]

Another data set has as its system E. coli CFT073. The data set is classed as cell-based, Escherichia coli. As for the experimental part: as §1, §2, §4
Data set [6] deals with Pseudomonas aeruginosa (ATCC 27853). The data set is classed as cell-based. As for the experimental part:
as §1, §2, §3

Setting [7] is: stated in SEM method, bacteria at 10^8 CFU/mL in 10 mM Tris buffer.

In brackets after ≈: the same amount, converted by molar mass. Like-named read-outs stand apart in the source and are kept apart here. Peptide text beside a SMILES is read from it.

Sequence of aureolysin (Staphylococcus aureus, UniProt P81177) (P81177 209-509): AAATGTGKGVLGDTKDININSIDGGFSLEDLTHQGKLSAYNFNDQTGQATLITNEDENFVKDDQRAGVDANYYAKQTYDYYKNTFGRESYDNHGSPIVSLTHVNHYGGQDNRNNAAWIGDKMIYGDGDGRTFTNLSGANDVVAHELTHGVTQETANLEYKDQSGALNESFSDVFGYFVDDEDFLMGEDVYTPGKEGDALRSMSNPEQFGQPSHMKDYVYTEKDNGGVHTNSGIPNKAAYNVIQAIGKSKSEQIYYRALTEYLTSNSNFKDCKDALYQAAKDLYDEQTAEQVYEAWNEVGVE

As for LLGDFFRKSKEKIGKEFKRIVQRIKDFLRNLVPRTES, the cleaved bond entry in the data set on aureolysin [1] is recorded as “L31-V32”.
On to `CC[C@H](C)[C@@H]1NC(=O)[C@H](CCCNC(=N)N)NC(=O)[C@H](CCCCN)NC(=O)[C@H](C(C)C)NC(=O)[C@H]([C@@H](C)CC)NC(=O)[C@H](CCCNC(=N)N)NC(=O)[C@H](CCCCN)NC(=O)CNC(=O)CNC(=O)[C@@H]2CCCN2C(=O)[C@H](CS)NC(=O)[C@H](CCCNC(=N)N)NC(=O)[C@H](CC(C)C)NC(=O)[C@H](Cc2ccccc2)NC(=O)[C@H](C)NC(=O)[C@H](CCCCN)NC(=O)[C@H]([C@@H](C)CC)NC(=O)[C@H](CCCNC(=N)N)NC(=O)[C@H](CCCCN)NC(=O)[C@H](C(C)C)NC(=O)[C@H]([C@@H](C)CC)NC(=O)[C@H](CCCNC(=N)N)NC(=O)[C@H](CCCCN)NC(=O)CNC(=O)CNC(=O)[C@@H]2CCCN2C(=O)CNC(=O)[C@H](CCCNC(=N)N)NC(=O)[C@H](CC(C)C)NC(=O)[C@H](Cc2ccccc2)NC(=O)[C@H](C)NC(=O)[C@H](CCCCN)NC1=O` [CD4-PP] (cyclo(AFLRCPGGKRIVKRIKAFLRGPGGKRIVKRIK)), for which the minimal inhibitory concentration (MIC) in data set [2] came out at 1.56 µM (≈ 5.62 µg/mL); in data set [3], 1.56 µM (≈ 5.62 µg/mL); in data set [5] it was 0.78 µM (≈ 2.81 µg/mL); against E. coli CFT073 (CFT073, 1 h) it was 0.78 µM (≈ 2.81 µg/mL). The “time for which the peptide is stable with aureolysin” value on aureolysin [4] is “up to 6 h”.
With `CC[C@H](C)[C@H](NC(=O)[C@H](CCCCN)NC(=O)[C@H](CCC(=O)O)NC(=O)[C@H](CCCCN)NC(=O)[C@H](CO)NC(=O)[C@H](CCCCN)NC(=O)[C@H](CCCNC(=N)N)NC(=O)[C@H](Cc1ccccc1)NC(=O)[C@H](Cc1ccccc1)NC(=O)[C@H](CC(=O)O)NC(=O)CNC(=O)[C@H](CC(C)C)NC(=O)[C@@H](N)CC(C)C)C(=O)NCC(=O)N[C@@H](CCCCN)C(=O)N[C@@H](CCC(=O)O)C(=O)N[C@@H](Cc1ccccc1)C(=O)N[C@@H](CCCCN)C(=O)N[C@@H](CCCNC(=N)N)C(=O)N[C@H](C(=O)N[C@H](C(=O)N[C@@H](CCC(N)=O)C(=O)N[C@@H](CCCNC(=N)N)C(=O)N[C@H](C(=O)N[C@@H](CCCCN)C(=O)N[C@@H](CC(=O)O)C(=O)N[C@@H](Cc1ccccc1)C(=O)N[C@@H](CC(C)C)C(=O)N[C@@H](CCCNC(=N)N)C(=O)N[C@@H](CC(N)=O)C(=O)N[C@@H](CC(C)C)C(=O)N[C@H](C(=O)N1CCC[C@H]1C(=O)N[C@@H](CCCNC(=N)N)C(=O)N[C@H](C(=O)N[C@@H](CCC(=O)O)C(=O)N[C@@H](CO)C(=O)O)[C@@H](C)O)C(C)C)[C@@H](C)CC)C(C)C)[C@@H](C)CC` [LL-37], the MIC is given as over 10 µM in data set [6] (CaCl2 2.5 mM); 2.5 µM (≈ 11.2 µg/mL) in data set [6] (FeCl3 4 µM); 5 µM (≈ 22.5 µg/mL) in data set [6] (MgCl2 1 mM); 1.25 µM (≈ 5.62 µg/mL) in data set [6] (NH4Cl 6 µM); 5 µM (≈ 22.5 µg/mL) in data set [6] (NaCl 150mM); 1.25 µM in data set [6] (salt series: Tris-buffer 10mM, no added salt). Further, the “MIC (reference concentration used for SEM)” value (in data set [6] (setting [7]); in the data set on E. coli CFT073 (setting [7])) was 15.62 µM throughout. Moreover, the “degradation by aureolysin (in words)” value at aureolysin [4] is “rapidly degraded within minutes”.
For CPGGKRIVKRIKAFLRGPGGKRIVKRIKAFLR, in the data set on aureolysin [1], the not cleaved entry was “stable for up to 6 h”.
